Test results: ChEMBL document CHEMBL1147904, “Probing length effects and mechanism of cell penetrating agents mounted on a polyproline helix scaffold” (Bioorg Med Chem Lett, 2007); call rule not given here
Non-standard residues stand in square brackets, D forms with d. Residues, ends and D or L forms follow the SMILES beside them. *: point of attachment. X1 = O=C(O)c1cc(C(=O)*)ccc1-c1c2ccc(=O)cc-2oc2cc(O)ccc12; Propyl(3-guanidino) = N=C(N)NCCC*; Hyp = O=C(O)[C@@H]1C[C@@H](O)CN1; Isobutyl = CC(C)C*

Columns and labels:
MCF7 [1] = assay: Decrease in cellular uptake in MCF7 cells at 15 uM at 4 degC after 6 hrs; type: ADME, cell-based; parameters: scale not given: the % may be the effect or the level left; settings: human, mcf7, 6 h
MCF7 [2] = assay: Decrease in cellular uptake in MCF7 cells at 15 uM in presence of sodium azideafter 6 hrs by flow cytometry; type: ADME, cell-based; parameters: scale not given: the % may be the effect or the level left; settings: human, mcf7, 6 h
MCF7 [3] = assay: Cellular uptake in MCF7 cells assessed as mean fluorescence at 15 uM after 6 hrs; type: ADME, cell-based; settings: human, mcf7, 6 h
MCF7 [4] = assay: Cellular uptake in MCF7 cells assessed as mean fluorescence at 10 uM after 6 hrs; type: ADME, cell-based; settings: human, mcf7, 6 h
[5] = Cytotoxicity against MCF7 cells assessed as cell viability at 15 uM after 24 hrs by flow cytometry; type: cell-based; settings: human, read-out: Activity
MCF7 [6] = assay: Cellular uptake in MCF7 cells assessed as mean fluorescence at 1 uM after 6 hrs; type: ADME, cell-based; settings: human, mcf7, 6 h
MCF7 [7] = assay: Cellular uptake in MCF7 cells assessed as mean fluorescence at 5 uM after 6 hrs; type: ADME, cell-based; settings: human, mcf7, 6 h
MCF7 [8] = assay: Decrease in cellular uptake in MCF7 cells at 15 uM at 37 degC after 6 hrs; type: ADME, cell-based; parameters: scale not given: the % may be the effect or the level left; settings: human, mcf7, 6 h

| Activity (MCF7 [1]) [%] | Activity (MCF7 [2]) | Activity (MCF7 [3]) [a.u.] | Activity (MCF7 [4]) [a.u.] | Activity (MCF7 [6]) [a.u.] | Activity (MCF7 [7]) [a.u.] | Activity (MCF7 [8]) [%] | SMILES | viability at 24 h, 15 µM [5] [%] |
| --- | --- | --- | --- | --- | --- | --- | --- | --- |
| 82 | 19% | 420 | 177 | 4 | 30 | 89 | CC(C)CO[C@@H]1C[C@@H](C(=O)N2C[C@H](OCCCNC(=N)N)C[C@H]2C(=O)N2C[C@H](OCCCNC(=N)N)C[C@H]2C(=O)N2C[C@H](OCC(C)C)C[C@H]2C(=O)N2C[C@H](OCCCNC(=N)N)C[C@H]2C(=O)N2C[C@H](OCCCNC(=N)N)C[C@H]2C(=O)N2C[C@H](OCC(C)C)C[C@H]2C(=O)N2C[C@H](OCCCNC(=N)N)C[C@H]2C(=O)N2C[C@H](OCCCNC(=N)N)C[C@H]2C(=O)N2C[C@H](OCC(C)C)C[C@H]2C(=O)N2C[C@H](OCCCNC(=N)N)C[C@H]2C(=O)N2C[C@H](OCCCNC(=N)N)C[C@H]2C(=O)N2C[C@H](OCC(C)C)C[C@H]2C(N)=O)N(C(=O)CNC(=O)c2ccc(-c3c4ccc(=O)cc-4oc4cc(O)ccc34)c(C(=O)O)c2)C1 (X1-G[Hyp](Isobutyl)[Hyp](Propyl(3-guanidino))[Hyp](Propyl(3-guanidino))[Hyp](Isobutyl)[Hyp](Propyl(3-guanidino))[Hyp](Propyl(3-guanidino))[Hyp](Isobutyl)[Hyp](Propyl(3-guanidino))[Hyp](Propyl(3-guanidino))[Hyp](Isobutyl)[Hyp](Propyl(3-guanidino))[Hyp](Propyl(3-guanidino))[Hyp](Isobutyl)-NH2) | 80 |
| 82 | Not Active | 63 | 15 | 2 | 7 | 89 | CC(C)CO[C@@H]1C[C@@H](C(=O)N2C[C@H](OCCCNC(=N)N)C[C@H]2C(=O)N2C[C@H](OCCCNC(=N)N)C[C@H]2C(=O)N2C[C@H](OCC(C)C)C[C@H]2C(=O)N2C[C@H](OCCCNC(=N)N)C[C@H]2C(=O)N2C[C@H](OCCCNC(=N)N)C[C@H]2C(=O)N2C[C@H](OCC(C)C)C[C@H]2C(=O)N2C[C@H](OCCCNC(=N)N)C[C@H]2C(=O)N2C[C@H](OCCCNC(=N)N)C[C@H]2C(=O)N2C[C@H](OCC(C)C)C[C@H]2C(N)=O)N(C(=O)CNC(=O)c2ccc(-c3c4ccc(=O)cc-4oc4cc(O)ccc34)c(C(=O)O)c2)C1 (X1-G[Hyp](Isobutyl)[Hyp](Propyl(3-guanidino))[Hyp](Propyl(3-guanidino))[Hyp](Isobutyl)[Hyp](Propyl(3-guanidino))[Hyp](Propyl(3-guanidino))[Hyp](Isobutyl)[Hyp](Propyl(3-guanidino))[Hyp](Propyl(3-guanidino))[Hyp](Isobutyl)-NH2) | 80 |
